Bridge positions count the residues as written; N and C are the ends. Peptide text beside a SMILES is read from it.
Legend:
[1] = target: T1, mLcn2 (Homo sapiens, UniProt P80188, A60R/C107S/D67H/D97E/E64D/F91S/G122D/H138Y/K145L/K154A/K66Q/K70N/K93H/L123K/L157I/L90I/M140V/N134D/P121G/Q148D/Q48H/Q69M/R101A/R150A/R92S/S147E/T165A/V146A/W99T/Y152F); assay: SPR of analyte mLcn2 flowed over immobilized Peptide16; type: binding
T1 construct: made in house; host or cells: bacteria
Source text: FIG. 14A: mLCN2 vs. Pep16. Surface plasmon resonance of analyte mLcn2 flowed over ligand Peptide16 immobilized to a CM5 chip. Representative results are shown from three independent experiments.
(§1) The sequence of mLcn2 was obtained from the PDB, synthesized and produced in bacteria. Peptides that specifically bind to mLcn2 were identified using a cyclic 7-mer library. Positive leads were identified and sequencing of these hits indicated an overall pattern in the sequences. To further characterize the lead peptides and to ensure the peptides bound to the same site as CTLA, a competition ELISA was performed using all leads (FIG. 2A). Based on this analysis, two cyclic peptides were chosen, chemically synthesized, and characterized by SPR (FIG. 2B) and crystallography. Well diffracting crystals were obtained for both complexes (1.95 and 2.15 Å) and refined (R/Rfree of 18.0/22.5% and 16.5/18.5% and no Ramachandran outliers). […] Design of the linker was aided by examination of the crystal structure of lipocalin.

[2] = test system: Lcn2-Fc; assay: Phage competition ELISA of surface-bound peptides on immobilized Lcn2-Fc; type: binding; settings: compared to Lcn2-Fc pre-complexed with CTLA4-Fc or PBS control
Source text: FIGS. 2A and 2B: Identification and characterization of a peptide (CTLA-4 binding domain masking peptide) blocking binding of mLcn2 (CTLA-4 binding domain) to CTLA-4. […] FIG. 2B is a graph showing surface plasmon resonance traces of analyte mLcn2-Fc flowed over ligand Peptide 16 immobilized to a CM5 chip.
FIG. 10B: ELISA results of bacteriophage library after three rounds of enrichment. Wells in a 96-well plate were immobilized with mLcn2-Fc (left column), mLcn2-Fc pre-complexed with CTLA-4-Fc (middle column), or PBS (right column). Each condition was performed in triplicate.
FIGS. 12A-12D: 18 min substrate incubation. […] FIG. 12A is a graph showing Clone 1—YGLGFNF (SEQ ID NO:52); FIG. 12B is a graph showing Clone 2—RIDETLQ (SEQ ID NO:53); FIG. 12C is a graph showing Clone 3—FTPWPEA (SEQ ID NO:54); and FIG. 12D is a graph showing Clone 4—WPEWDLW (SEQ ID NO:55).
FIGS. 13A-13D: 18 min substrate incubation. […] FIG. 13A is a graph showing clone 6—EKWFRFM (SEQ ID NO:56); FIG. 13B is a graph showing clone 8—YLELMHS (SEQ ID NO:57); FIG. 13C is a graph showing clone 12—SVLPPFM (SEQ ID NO:58); FIG. 13D is a graph showing clone 16—WSPLPFM (SEQ ID NO:59).
as §1

[3] = target: mLcn2-Fc; assay: SPR of analyte mLcn2-Fc flowed over immobilized Peptide12; type: binding; settings: peptide immobilized on CM5 chip, three independent experiments
Source text: FIG. 14B: mLCN2-Fc vs. Pep12. Surface plasmon resonance of analyte mLcn2-Fc flowed over ligand Peptide12 immobilized to a CM5 chip. Representative results are shown from three independent experiments.
as §1

[4] = most common major toxicity; cited from earlier work

**Q.** With `CSCC[C@@H]1NC(=O)[C@H](Cc2ccccc2)NC(=O)[C@@H]2CCCN2C(=O)[C@H](CC(C)C)NC(=O)[C@@H]2CCCN2C(=O)[C@H](CO)NC(=O)[C@H](Cc2c[nH]c3ccccc23)NC(=O)[C@@H](N)CSSC[C@@H](C(=O)O)NC1=O` [Peptide 16, CWSPLPFMC] (H-CWSPLPFMC-OH; disulfide 1-9) as the compound, how does the Kd [1] read?
**A.** 4.6 µM

**Q.** For CEKWFRFMC [Peptide 6], which “phage binding to immobilized Lcn2-Fc by ELISA” value (from here on “phage binding”) [2] is on record?
**A.** increased binding to immobilized Lcn2-Fc

**Q.** Which “phage binding” value [2] does the source give for CFTPWPEAC [Peptide 3] here?
**A.** increased binding to immobilized Lcn2-Fc

**Q.** With CRIDERLQC [Peptide 2] as the compound, how does the “phage binding” value [2] read?
**A.** increased binding to immobilized Lcn2-Fc

**Q.** With CSVLPPFMC [Peptide 12] as the compound, how does the “phage binding” value [2] read?
**A.** increased binding to immobilized Lcn2-Fc

**Q.** And the Kd [3]?
**A.** 3.4 µM

**Q.** With CWPEWDLWC [Peptide 4] as the compound, how does the “phage binding” value [2] read?
**A.** increased binding to immobilized Lcn2-Fc

**Q.** Which “phage binding” value [2] does the source give for CYGLGFNFC [Peptide 1] here?
**A.** increased binding to immobilized Lcn2-Fc

**Q.** With CYLELMHSC [Peptide 8] as the compound, how does the “phage binding” value [2] read?
**A.** increased binding to immobilized Lcn2-Fc

**Q.** Which “patients affected by enterocolitis” value [4] does the source give for ipilimumab here?
**A.** approximately 20%

Reference: patent US10689423B2, “CTLA4-binding protein peptide-linker masks” (City of Hope, priority 2015, dated 2020)
